The values that follow come from publication PMC8297783, “Autocrine signaling by receptor tyrosine kinases in urothelial carcinoma of the bladder” (PLoS ONE, 2021).

Assay [1] has as its target T1, MERTK (Homo sapiens, UniProt Q12866).
T1 construct: endogenous in cells; host or cells: J82 and MDXC1 (J82 xenograft explant)
T1 sequence (Q12866 21-999): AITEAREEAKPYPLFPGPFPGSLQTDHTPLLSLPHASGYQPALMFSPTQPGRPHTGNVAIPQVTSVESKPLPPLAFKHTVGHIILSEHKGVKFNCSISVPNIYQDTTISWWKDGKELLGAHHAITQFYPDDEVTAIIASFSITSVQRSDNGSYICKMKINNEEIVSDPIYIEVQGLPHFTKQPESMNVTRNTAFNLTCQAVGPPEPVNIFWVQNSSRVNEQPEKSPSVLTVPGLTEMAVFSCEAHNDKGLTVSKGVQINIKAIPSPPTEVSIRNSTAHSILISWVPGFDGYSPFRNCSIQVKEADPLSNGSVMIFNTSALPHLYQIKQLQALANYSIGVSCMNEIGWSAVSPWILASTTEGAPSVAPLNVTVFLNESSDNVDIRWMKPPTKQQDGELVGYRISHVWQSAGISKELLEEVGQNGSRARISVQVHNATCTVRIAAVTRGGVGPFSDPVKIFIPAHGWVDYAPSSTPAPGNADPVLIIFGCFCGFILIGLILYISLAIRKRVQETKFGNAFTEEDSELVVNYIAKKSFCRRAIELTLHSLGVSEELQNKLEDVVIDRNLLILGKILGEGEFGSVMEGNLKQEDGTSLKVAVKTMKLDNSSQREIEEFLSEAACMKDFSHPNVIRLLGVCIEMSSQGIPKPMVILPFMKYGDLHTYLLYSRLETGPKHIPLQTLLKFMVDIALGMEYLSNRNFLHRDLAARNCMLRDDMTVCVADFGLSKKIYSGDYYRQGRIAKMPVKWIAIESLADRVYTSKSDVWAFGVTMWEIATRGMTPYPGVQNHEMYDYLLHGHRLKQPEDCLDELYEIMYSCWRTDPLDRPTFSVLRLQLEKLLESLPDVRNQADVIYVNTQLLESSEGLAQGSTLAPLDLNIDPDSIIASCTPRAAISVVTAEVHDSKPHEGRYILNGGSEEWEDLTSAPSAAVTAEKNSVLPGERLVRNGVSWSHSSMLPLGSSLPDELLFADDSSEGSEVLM
Description: phospho-MERTK immunoblot of J82 and MDXC1 lysates. Format: cell-based. To be noted: J82 and MDXC1 cells. As for the experimental part:
For SDS-PAGE and immunoblot analysis, cultured cells were washed with cold PBS, extracted in Laemmli sample buffer, sonicated in ice-cold water with 3 cycles of 15 sec sonication followed by 1 min of cooling time. Samples were then heated for 5 min at 95°C prior to SDS-PAGE and electrophoretic transfer to nitrocellulose or PVDF membrane. Membranes were processed as described previously: membranes were blocked with 5% milk in Tris buffered saline, 0.1% Tween 20 (TBST) for 1 h at 25°C before incubating with primary antibody (1:1000 dilution) in TBST-5% milk for 16 h at 4°C. Membranes were then washed 3 times with TBST, incubated with horse radish peroxidase-labeled secondary antibody (1:10,000 dilution) for 1 h at 25°C, and washed for 3 h with TBS prior to ECL detection (Pierce/Thermo Fisher Scientific) according to the manufacturer’s supplied protocol. Imaging and quantitation of ECL light emission was performed using an Azure Biosystems c600 imaging system (Dublin, California USA).
Fig 8 Serial passage of J82 cell xenografts in mice. (A) Tumor volume (mm^3) of individual J82 (left) or MDXC1 (middle) cell xenografts in mice, or mean (+/- SD) tumor growth of both cell line xenografts (right), vs. days post implantation.
For orientation: In western blotting, separated proteins are transferred to a membrane and probed.

Assay [2] has as its target PDGFRA (Homo sapiens, UniProt P16234). Description: cell-free kinase inhibition assay, cabozantinib dose-dependence. To be noted: minimum of 3 x 10-dose curves. It is filed as biochemical.
In assay [3] the target is DDR2 (Homo sapiens, UniProt Q16832). The assay is described as above. Format: biochemical. Particulars: minimum of 3 x 10-dose curves.
Assay [4] concerns the target DDR1 (Homo sapiens, UniProt Q08345). The assay is described as above. Format: biochemical. Particulars: minimum of 3 x 10-dose curves.
Assay [5] has as its system FL3 cells. Description: Transwell cell migration assay, FL3 cells. To be noted: serum deprived FL3 cells, 16 h, 37°C, cabozantinib 300 nM.
The target of assay [6] is IGF1R (Homo sapiens, UniProt P08069). Description: cell-free kinase inhibition assay, cabozantinib dose-dependence. Format: biochemical.
Assay [7] has as its system FL3 cells. Description: anchorage independent growth assay, FL3 cells. Particulars: 1% FBS, cabozantinib 300 nM, with or without MST1 5 nM or CSF1 10 nM.
Assay [8] relates to J82 cells. Description: anchorage independent growth assay, J82 cells. Particulars: 1% FBS, cabozantinib 300 nM, with or without Gas6 5.7 nM.
For assay [9], the system named is Akt. Description: Akt kinase activation (pAkt/tAkt) in FL3 cells, MST1R and CSF1R pathways. It is filed as cell-based, Human. Particulars: serum-deprived FL3 cells, MST1 (5 nM) or CSF1 (10 nM), cabozantinib 300 nM.
The target in assay [10] is TYRO3 (Homo sapiens, UniProt Q06418). Description: cell-free kinase inhibition assay, cabozantinib dose-dependence. It is filed as biochemical. Particulars: minimum of 3 x 10-dose curves.
TYRO3, sequence (Q06418 41-890): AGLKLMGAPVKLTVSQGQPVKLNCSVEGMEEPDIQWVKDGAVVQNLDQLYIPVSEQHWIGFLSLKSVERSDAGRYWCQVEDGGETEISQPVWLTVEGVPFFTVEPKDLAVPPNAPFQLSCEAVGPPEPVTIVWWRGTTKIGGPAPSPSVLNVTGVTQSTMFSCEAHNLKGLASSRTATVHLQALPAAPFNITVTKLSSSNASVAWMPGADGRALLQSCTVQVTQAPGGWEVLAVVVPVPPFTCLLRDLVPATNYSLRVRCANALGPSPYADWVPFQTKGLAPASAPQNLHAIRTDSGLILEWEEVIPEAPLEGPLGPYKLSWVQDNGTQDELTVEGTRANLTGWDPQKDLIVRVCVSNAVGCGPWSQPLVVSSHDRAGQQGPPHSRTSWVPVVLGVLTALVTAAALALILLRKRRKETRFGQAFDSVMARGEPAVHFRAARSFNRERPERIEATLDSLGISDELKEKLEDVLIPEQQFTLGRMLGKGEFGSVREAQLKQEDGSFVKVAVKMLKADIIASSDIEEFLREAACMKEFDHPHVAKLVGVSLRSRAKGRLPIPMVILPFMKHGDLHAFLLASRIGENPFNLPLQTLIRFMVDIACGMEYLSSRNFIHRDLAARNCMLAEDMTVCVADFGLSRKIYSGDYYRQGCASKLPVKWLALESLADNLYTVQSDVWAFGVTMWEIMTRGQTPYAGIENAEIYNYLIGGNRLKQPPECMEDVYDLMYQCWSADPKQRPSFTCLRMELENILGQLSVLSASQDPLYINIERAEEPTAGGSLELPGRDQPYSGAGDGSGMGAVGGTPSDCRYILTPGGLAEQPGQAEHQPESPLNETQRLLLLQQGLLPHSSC
Assay [11] concerns the target FLT4 (Homo sapiens, UniProt P35916). The assay is described as above. It is filed as biochemical. To be noted: minimum of 3 x 10-dose curves.
In assay [12] the target is FGFR3 (Homo sapiens, UniProt P22607). Described as above. Format: biochemical.
The target of assay [13] is T2, Axl (Homo sapiens, UniProt P30530).
T2 construct: endogenous in cells; host or cells: J82 (ATCC HTB-1)
Description: Axl kinase activation (pAxl/tAxl) by 2-site immunoassay in J82 cells. To be noted: serum-deprived J82 cells, Gas6 5.7 nM 1 h at 37°C, added cabozantinib 300 nM, relative to untreated cells. Format: cell-based.

The target of assay [14] is FGFR2 (Homo sapiens, UniProt P21802). Description: cell-free kinase inhibition assay, cabozantinib dose-dependence. Format: biochemical. Particulars: minimum of 3 x 10-dose curves.
In assay [15] the test system is TEK. To be noted: in vitro; read-out: IC50, TEK inhibition in vitro; cited from earlier work.
The target of assay [16] is FGFR4 (Homo sapiens, UniProt P22455). Description: cell-free kinase inhibition assay, cabozantinib dose-dependence. It is filed as biochemical.
For assay [17], the target named is T3, CSF1R (Homo sapiens, UniProt P07333). Details: method as in PMID 30075184. Particulars: intact cells; cited from earlier work.
T3 sequence (P07333 20-972): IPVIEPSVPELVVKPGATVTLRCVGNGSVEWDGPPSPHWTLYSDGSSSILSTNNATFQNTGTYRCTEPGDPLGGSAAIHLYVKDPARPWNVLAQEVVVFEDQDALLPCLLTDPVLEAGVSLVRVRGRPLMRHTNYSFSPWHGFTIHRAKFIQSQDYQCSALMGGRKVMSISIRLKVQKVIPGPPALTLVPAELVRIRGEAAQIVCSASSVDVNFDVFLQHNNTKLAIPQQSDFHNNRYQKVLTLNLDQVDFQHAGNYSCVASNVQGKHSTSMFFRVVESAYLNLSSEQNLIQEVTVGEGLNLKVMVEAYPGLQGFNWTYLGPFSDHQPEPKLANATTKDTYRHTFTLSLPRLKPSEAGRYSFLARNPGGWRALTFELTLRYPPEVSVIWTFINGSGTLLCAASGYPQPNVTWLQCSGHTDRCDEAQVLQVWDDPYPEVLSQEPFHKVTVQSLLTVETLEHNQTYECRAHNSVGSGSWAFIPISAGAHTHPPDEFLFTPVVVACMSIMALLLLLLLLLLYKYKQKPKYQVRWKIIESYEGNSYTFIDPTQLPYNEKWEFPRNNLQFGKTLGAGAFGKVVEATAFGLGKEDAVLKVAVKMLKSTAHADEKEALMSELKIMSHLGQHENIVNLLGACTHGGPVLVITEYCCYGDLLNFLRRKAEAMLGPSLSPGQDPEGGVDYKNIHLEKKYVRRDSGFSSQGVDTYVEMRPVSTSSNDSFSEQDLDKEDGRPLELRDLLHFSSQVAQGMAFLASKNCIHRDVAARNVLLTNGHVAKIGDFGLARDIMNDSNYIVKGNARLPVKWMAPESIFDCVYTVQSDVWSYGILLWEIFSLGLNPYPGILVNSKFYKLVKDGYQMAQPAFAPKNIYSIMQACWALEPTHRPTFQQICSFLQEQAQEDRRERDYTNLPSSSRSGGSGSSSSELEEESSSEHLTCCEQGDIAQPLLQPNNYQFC
Assay [18] has as its system 5637 cells. Description: cell proliferation assay, 5637 cells. Particulars: 1% FBS, 6 d. It is filed as cell-based, Human.
For assay [19], the target named is NTRK1 (Homo sapiens, UniProt P04629). Description: cell-free kinase inhibition assay, cabozantinib dose-dependence. It is filed as biochemical. Particulars: minimum of 3 x 10-dose curves.
The target of assay [20] is NTRK2 (Homo sapiens, UniProt Q16620). The description is as above. It is filed as biochemical.
NTRK2, sequence (Q16620 32-822): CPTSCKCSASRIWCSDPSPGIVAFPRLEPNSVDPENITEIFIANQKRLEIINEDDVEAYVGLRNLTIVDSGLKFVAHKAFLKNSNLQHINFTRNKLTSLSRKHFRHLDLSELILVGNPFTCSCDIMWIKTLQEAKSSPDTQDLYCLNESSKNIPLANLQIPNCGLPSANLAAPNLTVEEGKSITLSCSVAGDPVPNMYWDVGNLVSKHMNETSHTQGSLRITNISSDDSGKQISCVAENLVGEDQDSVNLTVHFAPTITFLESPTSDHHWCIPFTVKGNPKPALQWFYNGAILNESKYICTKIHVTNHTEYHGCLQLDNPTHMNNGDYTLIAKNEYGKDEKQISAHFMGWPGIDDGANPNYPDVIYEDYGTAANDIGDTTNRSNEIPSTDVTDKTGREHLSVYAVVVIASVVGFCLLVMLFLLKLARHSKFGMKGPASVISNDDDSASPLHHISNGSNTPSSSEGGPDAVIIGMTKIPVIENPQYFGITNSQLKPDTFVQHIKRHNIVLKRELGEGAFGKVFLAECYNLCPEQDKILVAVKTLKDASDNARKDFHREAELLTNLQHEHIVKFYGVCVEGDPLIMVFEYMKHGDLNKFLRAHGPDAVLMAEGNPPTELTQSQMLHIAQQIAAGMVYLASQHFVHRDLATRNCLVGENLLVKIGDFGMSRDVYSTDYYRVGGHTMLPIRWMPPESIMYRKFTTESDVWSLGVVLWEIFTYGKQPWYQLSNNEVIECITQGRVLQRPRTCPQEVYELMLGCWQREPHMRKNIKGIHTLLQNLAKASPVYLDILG
The test system of assay [21] is J82 cells. Description: cell proliferation assay, J82 cells. It is filed as cell-based, Human. Particulars: 1% FBS, 6 d.
Assay [22] deals with FL3 cells. Description: cell proliferation assay, FL3 cells. It is filed as cell-based, Human. To be noted: 1% FBS, 6 d.
Assay [23] has as its target FGFR1 (Homo sapiens, UniProt P11362). Description: cell-free kinase inhibition assay, cabozantinib dose-dependence. It is filed as biochemical.
Assay [24] has as its system J82 cells. Description: Transwell cell migration assay, J82 cells. To be noted: serum deprived J82 cells, 16 h, 37°C, Gas6 5.7 nM, cabozantinib 300 nM.
For assay [25], the target named is ALK (Homo sapiens, UniProt Q9UM73). Description: cell-free kinase inhibition assay, cabozantinib dose-dependence.
Assay [26] addresses NTRK3 (Homo sapiens, UniProt Q16288). The assay is described as above. It is filed as biochemical. Particulars: minimum of 3 x 10-dose curves.
The test system of assay [27] is Erk. Description: Erk kinase activation (pErk/tErk) by 2-site immunoassay in J82 cells. Format: cell-based, Human. To be noted: serum-deprived J82 cells.
The target of assay [28] is T3, CSF1R. Description: cell-free kinase inhibition assay, cabozantinib dose-dependence. Format: biochemical. Particulars: minimum of 3 x 10-dose curves.
In assay [29] the test system is Erk. Description: Erk kinase activation (pErk/tErk) in FL3 cells, MST1R and CSF1R pathways. Particulars: MST1 or CSF1, cabozantinib. Format: cell-based, Human.
Assay [30] concerns advanced BCa. To be noted: clinical trial of cabozantinib in advanced BCa patients; cited from earlier work.
In assay [31] the test system is Akt. Description: Akt kinase activation (pAkt/tAkt) by 2-site immunoassay in J82 cells. Format: cell-based, Human. Particulars: serum-deprived J82 cells.
Assay [32] deals with MUSK (Homo sapiens, UniProt O15146). Description: cell-free kinase inhibition assay, cabozantinib dose-dependence. It is filed as biochemical.
The target of assay [33] is ROS (Homo sapiens, UniProt P08922). Described as above. Format: biochemical. To be noted: minimum of 3 x 10-dose curves.
ROS, sequence (P08922 28-2347): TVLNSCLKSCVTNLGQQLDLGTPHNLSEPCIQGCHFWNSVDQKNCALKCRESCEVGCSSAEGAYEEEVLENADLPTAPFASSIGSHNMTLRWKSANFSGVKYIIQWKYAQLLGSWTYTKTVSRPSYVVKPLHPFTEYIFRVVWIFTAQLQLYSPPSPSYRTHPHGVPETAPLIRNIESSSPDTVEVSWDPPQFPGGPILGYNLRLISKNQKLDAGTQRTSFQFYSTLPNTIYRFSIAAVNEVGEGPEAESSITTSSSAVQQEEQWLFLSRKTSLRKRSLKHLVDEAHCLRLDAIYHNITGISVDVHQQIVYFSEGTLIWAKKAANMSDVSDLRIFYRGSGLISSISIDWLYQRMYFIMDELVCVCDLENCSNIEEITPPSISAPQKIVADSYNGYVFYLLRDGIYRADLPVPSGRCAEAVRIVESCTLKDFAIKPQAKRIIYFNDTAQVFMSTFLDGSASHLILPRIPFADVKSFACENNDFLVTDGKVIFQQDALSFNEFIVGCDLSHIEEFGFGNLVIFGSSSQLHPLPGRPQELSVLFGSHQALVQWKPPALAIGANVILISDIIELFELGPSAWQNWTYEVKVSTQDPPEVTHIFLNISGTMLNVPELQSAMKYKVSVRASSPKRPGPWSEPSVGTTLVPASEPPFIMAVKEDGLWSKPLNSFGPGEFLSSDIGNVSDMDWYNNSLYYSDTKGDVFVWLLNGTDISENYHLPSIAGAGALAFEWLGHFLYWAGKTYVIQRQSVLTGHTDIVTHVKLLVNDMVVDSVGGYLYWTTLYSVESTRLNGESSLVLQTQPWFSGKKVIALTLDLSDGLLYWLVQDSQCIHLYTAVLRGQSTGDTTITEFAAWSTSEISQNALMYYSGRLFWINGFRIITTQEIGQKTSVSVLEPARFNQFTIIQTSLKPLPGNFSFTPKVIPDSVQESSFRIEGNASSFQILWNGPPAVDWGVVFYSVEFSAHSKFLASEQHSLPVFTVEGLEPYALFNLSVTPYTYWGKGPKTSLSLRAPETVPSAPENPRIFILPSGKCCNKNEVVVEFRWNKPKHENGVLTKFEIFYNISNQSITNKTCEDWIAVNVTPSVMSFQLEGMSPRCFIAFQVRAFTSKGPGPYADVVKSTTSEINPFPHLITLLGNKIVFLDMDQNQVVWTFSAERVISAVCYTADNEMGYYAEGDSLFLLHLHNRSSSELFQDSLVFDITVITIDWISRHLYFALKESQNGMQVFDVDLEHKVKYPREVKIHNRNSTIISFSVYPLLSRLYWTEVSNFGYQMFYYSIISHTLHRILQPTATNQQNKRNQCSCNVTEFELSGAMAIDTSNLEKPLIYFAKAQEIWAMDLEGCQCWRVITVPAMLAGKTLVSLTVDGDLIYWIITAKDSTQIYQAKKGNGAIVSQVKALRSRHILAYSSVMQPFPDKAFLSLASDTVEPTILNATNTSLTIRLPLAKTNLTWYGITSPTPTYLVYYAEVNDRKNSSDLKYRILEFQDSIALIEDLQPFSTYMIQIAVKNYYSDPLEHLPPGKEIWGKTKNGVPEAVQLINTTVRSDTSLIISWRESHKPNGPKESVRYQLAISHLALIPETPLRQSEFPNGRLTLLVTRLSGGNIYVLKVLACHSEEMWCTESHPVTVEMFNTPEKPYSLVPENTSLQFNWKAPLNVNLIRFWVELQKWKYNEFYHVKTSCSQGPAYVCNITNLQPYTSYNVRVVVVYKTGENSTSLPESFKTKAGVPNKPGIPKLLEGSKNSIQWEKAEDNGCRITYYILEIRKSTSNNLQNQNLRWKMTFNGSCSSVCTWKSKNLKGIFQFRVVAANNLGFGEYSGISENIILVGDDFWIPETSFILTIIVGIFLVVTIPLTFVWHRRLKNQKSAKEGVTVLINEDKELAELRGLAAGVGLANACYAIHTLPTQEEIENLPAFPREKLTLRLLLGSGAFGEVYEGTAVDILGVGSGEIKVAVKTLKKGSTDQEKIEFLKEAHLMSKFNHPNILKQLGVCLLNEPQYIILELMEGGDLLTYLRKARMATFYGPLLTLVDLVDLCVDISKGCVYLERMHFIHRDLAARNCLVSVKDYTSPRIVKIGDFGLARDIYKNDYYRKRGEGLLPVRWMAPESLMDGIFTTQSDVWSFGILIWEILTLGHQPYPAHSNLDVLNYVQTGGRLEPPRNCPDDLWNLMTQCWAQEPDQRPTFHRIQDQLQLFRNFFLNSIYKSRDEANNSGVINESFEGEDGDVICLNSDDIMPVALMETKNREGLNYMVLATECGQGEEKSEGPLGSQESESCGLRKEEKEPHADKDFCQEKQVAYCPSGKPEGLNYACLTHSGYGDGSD
The mark [34] stands for this setting: cabozantinib 300 nM, in the presence or absence of added Gas6 (5.7 nM).
[35] abbreviates: Gas6 5.7 nM 1 h, cabozantinib 300 nM.
The mark [36] stands for this setting: exogenous Gas6 5.7 nM, 1 h at 37°C.

Where “and” joins values, the source holds several entries; their conditions need not be identical. Equal entries are not always repeated. Where two headings read alike, the source gives them in different places.

As for `CN1CCN(Cc2ccc(Nc3ncc(Cl)c(Nc4ccccc4S(=O)(=O)N(C)C)n3)cc2)CC1` [TP0903], the phospho-MERTK content result in assay [1] (TP0903 300 nM) is given as “reduced phospho-MERTK content below that of untreated serum-deprived cells”.
As to `COc1cc2nccc(Oc3ccc(NC(=O)C4(C(=O)Nc5ccc(F)cc5)CC4)cc3)c2cc1OC` [cabozantinib], the IC50 in assay [2] is 414 nM; in assay [3], < 150 nM; in assay [4], < 150 nM; in [6] it was > 3000 nM; in [10], < 50 nM and 3 nM; in assay [11] it was 24 nM and < 50 nM. Moreover, the IC50 was > 3000 nM in assay [12]; > 3000 nM in assay [14]; 14 nM in assay [15]; > 3000 nM in assay [16]; 11 nM in [19]; < 50 nM in assay [20]. In addition, the IC50 in assay [20] (IC50 (NTRK2), cell-free assay, minimum of 3 x 10-dose curves) is 15 nM; in assay [23], > 3000 nM; in [25] it was > 3000 nM; in [26], < 150 nM; in [28], 14 nM; in assay [32], > 3000 nM. The IC50 in assay [33] was 43 nM and < 50 nM. Moreover, in assay [5] (CSF1 10 nM), the CSF1-induced migration result was “repressed”. Besides, the MST1-induced migration entry in assay [5] (MST1 5 nM) is “repressed”. In addition, the anchorage independent growth entry in [7] and in assay [8] was “inhibited” throughout. For the same molecule, the “Akt kinase activation (pAkt/tAkt)” value in assay [9] was “suppressed significantly below baseline”; in assay [31] (setting [35]), “suppression below baseline”. Besides, the “Axl kinase activation (pAxl/tAxl)” value in assay [13] was “suppressed significantly below control levels”. In [17], the “inhibition of CSF1R activation” value is given as “complete inhibition”. Also, the proliferation result is “significantly inhibited proliferation by these lines below the rate of untreated cells” in assay [18] (setting [34]); “significantly inhibited proliferation by these lines below the rate of untreated cells” in assay [21] (setting [34]); “reduced FL3 proliferation to the control cell growth rate, but not below” in assay [22] (both cabozantinib 300 nM and MST1 5 nM). Further, the proliferation rate entry in [22] (cabozantinib alone 300 nM, relative to untreated cells) is “significantly reduced proliferation rate”. Besides, the Gas6-induced migration result in assay [24] was “repressed”. Besides, the “Erk kinase activation (pErk/tErk)” value in assay [27] (setting [35]) is listed as “suppression below baseline”; in assay [29] it was “suppressed significantly below baseline”. Moreover, the overall response rate in [30] is 33%.
“Gas6: exogenous ligand of AXL (also activates MERTK), added to cells at 5.7 nM”: the proliferation rate result in assay [18] (exogenously added Gas6 5.7 nM) and in [21] (exogenously added Gas6 5.7 nM) was “significantly increased” in each case. Besides, the MERTK autophosphorylation entry in assay [1] (exogenous Gas6 5.7 nM) is listed as “stimulated robust MERTK autophosphorylation”. Also, the “Erk kinase activation (pErk/tErk)” value in [27] (setting [36]) is given as “significant exogenous Gas6-induced activation”. In [31] (setting [36]), the “Akt kinase activation (pAkt/tAkt)” value is “significant exogenous Gas6-induced activation”.

Usually IC50 stands for the concentration needed to halve the response being measured.
